# In PubChem BioAssay AID1259407 (Chemical Carcinogenesis Research Information System (CCRIS), 2018):
# Calls of active or inactive are those of the source. The rule behind the calls is not given here.
# Test system: CCRIS mutagenicity, Ames/micronucleus/aberration tests
# Assay: CCRIS mutagenicity studies
# [1] = Test System: AMES SALMONELLA TYPHIMURIUM, Strain/Indicator: TA97, Metabolic Activation: NONE, Method: PREINCUBATION
# [2] = Test System: AMES SALMONELLA TYPHIMURIUM, Strain/Indicator: TA98, Metabolic Activation: NONE, Method: PREINCUBATION
# [3] = Test System: AMES SALMONELLA TYPHIMURIUM, Strain/Indicator: TA100, Metabolic Activation: NONE, Method: PREINCUBATION
# [4] = Test System: AMES SALMONELLA TYPHIMURIUM, Strain/Indicator: TA1535, Metabolic Activation: NONE, Method: PREINCUBATION
# [5] = Test System: AMES SALMONELLA TYPHIMURIUM, Strain/Indicator: TA100, Metabolic Activation: NONE, Method: STANDARD PLATE
compound,measurement,setting,value
CCCCCCCCC1CO1 (stereo not drawn),mutagenic call,"Test System: AMES SALMONELLA TYPHIMURIUM, Strain/Indicator: TA97, Metabolic Activation: HAMSTER, LIVER, S-9, AROCLOR 1254 (10% & 30%), Method: PREINCUBATION",inactive; negative
same,mutagenic call,[1],inactive; negative
same,mutagenic call,"Test System: AMES SALMONELLA TYPHIMURIUM, Strain/Indicator: TA97, Metabolic Activation: RAT, LIVER, S-9, AROCLOR 1254 (10% & 30%), Method: PREINCUBATION",inactive; negative
same,mutagenic call,"Test System: AMES SALMONELLA TYPHIMURIUM, Strain/Indicator: TA98, Metabolic Activation: HAMSTER, LIVER, S-9, AROCLOR 1254 (10% & 30%), Method: PREINCUBATION",inactive; negative
same,mutagenic call,[2],inactive; negative
same,mutagenic call,"Test System: AMES SALMONELLA TYPHIMURIUM, Strain/Indicator: TA98, Metabolic Activation: RAT, LIVER, S-9, AROCLOR 1254 (10% & 30%), Method: PREINCUBATION",inactive; negative
same,mutagenic call,"Test System: AMES SALMONELLA TYPHIMURIUM, Strain/Indicator: TA100, Metabolic Activation: HAMSTER, LIVER, S-9, AROCLOR 1254 (10% & 30%), Method: PREINCUBATION",inactive; negative
same,mutagenic call,[3],inactive; negative
same,mutagenic call,"Test System: AMES SALMONELLA TYPHIMURIUM, Strain/Indicator: TA100, Metabolic Activation: RAT, LIVER, S-9, AROCLOR 1254 (10% & 30%), Method: PREINCUBATION",inactive; negative
same,mutagenic call,"Test System: AMES SALMONELLA TYPHIMURIUM, Strain/Indicator: TA1535, Metabolic Activation: HAMSTER, LIVER, S-9, AROCLOR 1254 (10% & 30%), Method: PREINCUBATION",inactive; negative
same,mutagenic call,[4],inactive; negative
same,mutagenic call,"Test System: AMES SALMONELLA TYPHIMURIUM, Strain/Indicator: TA1535, Metabolic Activation: RAT, LIVER, S-9, AROCLOR 1254 (10% & 30%), Method: PREINCUBATION",inactive; negative
same,mutagenic call,"Test System: AMES SALMONELLA TYPHIMURIUM, Strain/Indicator: TA1537, Metabolic Activation: HAMSTER, LIVER, S-9, AROCLOR 1254 (10% & 30%), Method: PREINCUBATION",inactive; negative
same,mutagenic call,"Test System: AMES SALMONELLA TYPHIMURIUM, Strain/Indicator: TA1537, Metabolic Activation: NONE, Method: PREINCUBATION",inactive; negative
same,mutagenic call,"Test System: AMES SALMONELLA TYPHIMURIUM, Strain/Indicator: TA1537, Metabolic Activation: RAT, LIVER, S-9, AROCLOR 1254 (10% & 30%), Method: PREINCUBATION",inactive; negative
same,mutagenic call,"Test System: UDS RAT HEPATOCYTES, Strain/Indicator: THY INCORP, Metabolic Activation: NONE",inactive; negative
O=C1C(Cl)=C(Cl)C(=O)C1(Cl)Cl,mutagenic call,[5],inactive; negative
CN(C)c1nc(N(C)C)nc(N(C)C)n1,mutagenic call,[3],inactive; negative
same,mutagenic call,"Test System: AMES SALMONELLA TYPHIMURIUM, Strain/Indicator: TA100, Metabolic Activation: RAT, LIVER, S-9, AROCLOR 1254 (4 OR 10%), Method: PREINCUBATION",inactive; negative
same,mutagenic call,"Test System: AMES SALMONELLA TYPHIMURIUM, Strain/Indicator: TA100, Metabolic Activation: RAT, LIVER, S-9, AROCLOR 1254 (10%), Method: STANDARD PLATE",inactive; negative
same,mutagenic call,"Test System: AMES SALMONELLA TYPHIMURIUM, Strain/Indicator: TA100, Metabolic Activation: RAT, LIVER, S-9, AROCLOR 1254 (30%), Method: PREINCUBATION",active; positive
COO,mutagenic call,[5],inactive; negative
same,mutagenic call,"Test System: AMES SALMONELLA TYPHIMURIUM, Strain/Indicator: TA102, Metabolic Activation: NONE, Method: STANDARD PLATE",active; positive
CC(=O)c1c(C)c([N+](=O)[O-])c(C(C)(C)C)c([N+](=O)[O-])c1C,mutagenic call,"Test System: AMES SALMONELLA TYPHIMURIUM, Strain/Indicator: TA97, Metabolic Activation: HAMSTER, LIVER, S-9, AROCLOR 1254 (10 OR 30%), Method: PREINCUBATION",inactive; negative
same,mutagenic call,[1],inactive; negative
same,mutagenic call,"Test System: AMES SALMONELLA TYPHIMURIUM, Strain/Indicator: TA97, Metabolic Activation: RAT, LIVER, S-9, AROCLOR 1254 (10 OR 30%), Method: PREINCUBATION",inactive; negative
same,mutagenic call,"Test System: AMES SALMONELLA TYPHIMURIUM, Strain/Indicator: TA98, Metabolic Activation: HAMSTER, LIVER, S-9, AROCLOR 1254 (10 OR 30%), Method: PREINCUBATION",inactive; negative
same,mutagenic call,[2],inactive; negative
same,mutagenic call,"Test System: AMES SALMONELLA TYPHIMURIUM, Strain/Indicator: TA98, Metabolic Activation: RAT, LIVER, S-9, AROCLOR 1254 (10 OR 30%), Method: PREINCUBATION",inactive; negative
same,mutagenic call,"Test System: AMES SALMONELLA TYPHIMURIUM, Strain/Indicator: TA98, Metabolic Activation: RAT, LIVER, S-9, AROCLOR 1254, Method: PREINCUBATION",inactive; negative
same,mutagenic call,"Test System: AMES SALMONELLA TYPHIMURIUM, Strain/Indicator: TA98, Metabolic Activation: RAT, LIVER, S-9, AROCLOR 1254, Method: STANDARD PLATE",inactive; negative
same,mutagenic call,"Test System: AMES SALMONELLA TYPHIMURIUM, Strain/Indicator: TA100, Metabolic Activation: HAMSTER, LIVER, S-9, AROCLOR 1254 (10 OR 30%), Method: PREINCUBATION",inactive; negative
same,mutagenic call,[3],inactive; negative
same,mutagenic call,"Test System: AMES SALMONELLA TYPHIMURIUM, Strain/Indicator: TA100, Metabolic Activation: RAT, LIVER, S-9, AROCLOR 1254 (10 OR 30%), Method: PREINCUBATION",inactive; negative
same,mutagenic call,"Test System: AMES SALMONELLA TYPHIMURIUM, Strain/Indicator: TA100, Metabolic Activation: RAT, LIVER, S-9, AROCLOR 1254, Method: PREINCUBATION",inactive; negative
same,mutagenic call,"Test System: AMES SALMONELLA TYPHIMURIUM, Strain/Indicator: TA100, Metabolic Activation: RAT, LIVER, S-9, AROCLOR 1254, Method: STANDARD PLATE",inactive; negative
same,mutagenic call,"Test System: AMES SALMONELLA TYPHIMURIUM, Strain/Indicator: TA1535, Metabolic Activation: HAMSTER, LIVER, S-9, AROCLOR 1254 (10 OR 30%), Method: PREINCUBATION",inactive; negative
same,mutagenic call,[4],inactive; negative
same,mutagenic call,"Test System: AMES SALMONELLA TYPHIMURIUM, Strain/Indicator: TA1535, Metabolic Activation: RAT, LIVER, S-9, AROCLOR 1254 (10 OR 30%), Method: PREINCUBATION",inactive; negative
same,mutagenic call,"Test System: MOUSE LYMPHOMA, Strain/Indicator: L5178Y (TK+/TK-), Metabolic Activation: NONE, Method: SUSPENSION/PLATE",inactive; negative
same,mutagenic call,"Test System: MOUSE LYMPHOMA, Strain/Indicator: L5178Y (TK+/TK-), Metabolic Activation: RAT, LIVER, S-9, AROCLOR 1242 AND AROCLOR 1254 (2:1), Method: SUSPENSION/PLATE",inactive; negative
same,mutagenic call,"Test System: UDS RAT PRIMARY HEPATOCYTES, Strain/Indicator: THY INCORP, Metabolic Activation: NONE",inactive; negative
C=CC(O)c1ccc2c(c1)OCO2 (stereo not drawn),mutagenic call,"Test System: UDS HUMAN FIBROBLASTS, Strain/Indicator: THY INCORP (NON-S-PHASE), Metabolic Activation: NONE, Method: AUTORADIOGRAPHY",active; positive
